The subject of assay [1] is OCI-LY10 cells. The experiment in a line: CTG Cell Viability Assay with OCI-LY10. In kind it is cell-based. The conditions noted are these: Homo sapiens, 96 h, 4 days, CellTiter-Glo, read-out: CTG Cell Viability in OCI-LY10: Average external DC50. The protocol: Compound-mediated viability effect on OCI-LY10 or TMD8 was quantitatively determined using the CellTiter-Glo® Luminescent Cell Viability Assay kit from Promega (Catalog number G7570) following manufacturer's recommended procedures. Briefly, OCI-LY10 cells were seeded into 384 well plates (Grenier Bio-One, Catalog number 781080) with a density of 10,000 cells per well. Compounds were then added to the assay plate with final top concentration of 10 μM and 1:3 dilution series with total of 9 doses. The final DMSO concentration was normalized to 0.2%. The assay plates were incubated at 37° C. for 4 days under 5% CO2. Then the assay plate was equilibrated at room temperature for 10 minutes. To determine cell viability, 30 μL Cell Titer Glo reagent was added to each well and the assay plate was centrifuged at 1000 rpm for 30 second, incubated at room temperature for 10 min, and analyzed by detecting the luminescence using a multimode plate reader (EnVision 2105, PerkinElmer). The data was then analyzed by software Prism 7.0 from GraphPad and the dose response curves were fit using a three-parameter logistic equation to calculate IC50.
The letter codes for IRAK4 IC50 include: A (<0.05 μM), B (0.05-0.1 μM), C (0.1-0.5 μM), D (0.5-1.0 μM), and E (>1.0 μM).

Assay [2] deals with T1, IRAK4 (Homo sapiens, UniProt Q9NWZ3).
T1 construct: endogenous in cells; host or cells: OCI-LY10
T1 sequence (Q9NWZ3 1-460): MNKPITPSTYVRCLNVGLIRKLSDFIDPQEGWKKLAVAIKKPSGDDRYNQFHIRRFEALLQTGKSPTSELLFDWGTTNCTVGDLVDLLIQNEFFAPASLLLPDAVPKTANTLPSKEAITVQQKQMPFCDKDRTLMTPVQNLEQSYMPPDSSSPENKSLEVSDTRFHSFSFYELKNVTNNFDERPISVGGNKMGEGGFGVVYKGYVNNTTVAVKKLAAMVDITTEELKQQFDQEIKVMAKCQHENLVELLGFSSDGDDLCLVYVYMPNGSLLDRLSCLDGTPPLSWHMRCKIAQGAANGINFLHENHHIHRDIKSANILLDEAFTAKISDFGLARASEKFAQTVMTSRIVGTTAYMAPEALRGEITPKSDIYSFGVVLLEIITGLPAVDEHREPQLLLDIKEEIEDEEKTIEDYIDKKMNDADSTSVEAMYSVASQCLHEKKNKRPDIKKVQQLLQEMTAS
Description: IRAK4 MSD degradation in OCI-LY10. In kind it is cell-based. The conditions noted are these: OCI-LY10 cells, 24 hrs, Meso Scale Discovery; read-out: IRAK4 MSD degradation in OCI-LY10 at 24 hrs: Average external-Abs DC50. The procedure: Degradation of IRAK4 in OCI-LY10 was quantitatively measured using Meso Scale Discovery technology. OCI-LY10 cells were seeded in 96-well plates (Corning 3799) with a density of 300,000 cells per well in 100 μL fresh media. Compounds were then added to the assay plates with a final top concentration of 1 to 10 μM in a 1:3 dilution series with total of 8 doses. The assay plates were then incubated for 4 to 24 hours at 37 under 5% CO2. The assay plates were then centrifuged for 5 minutes and the cell pellets were treated with 100 μL/well RIPA lysis buffer (Boston BioProducts BP-115D) with proteinase inhibitors. To prepare MSD assay plates (Meso Scale Discovery Catalog number L15XA-3), the plates were coated with 2 μg/mL capture antibody (mouse Anti-IRAK4 antibody [2H9], ab119942) in PBS, at 40 μL/well. […] The assay plates were then incubated at room temperature for 1 hour, washed 3 times with 150 μL/well TBST buffer, and 150 μL/well MSD reading buffer (Meso Scale Discovery catalog number R92TC-2) was added. The plates were then analyzed by a MSD reader (Meso Scale Discovery, Model Quick Plex SQ 120). The data was then analyzed by software Prism 7.0 from GraphPad and the dose-depended IRAK4 degradation were fit using a three-parameter logistic equation to calculate DC50. […]

Structures are written as SMILES. pIC50: −log10 of the molar value.

Turning to `[2H]C([2H])([2H])C(O)(c1cc2nc([C@H]3CC[C@H](CN4CC5(CC(CCNc6cccc7c6C(=O)N(C6CCC(=O)NC6=O)C7=O)C5)C4)CC3)sc2cc1NC(=O)c1cccc(C(F)(F)F)n1)C([2H])([2H])[2H]` (some centres unmarked) [Compound I-1, N-[2-[4-[[6-[2-[[2-(2,6-dioxo-3-piperidyl)-1,3-dioxo-isoindolin-4-yl]amino]ethyl]-2-azaspiro[3.3]heptan-2-yl]methyl]cyclohexyl]-5-[2,2,2-trideuterio-1-hydroxy-1-(trideuteriomethyl)ethyl]-1,3-benzothiazol-6-yl]-6-(trifluoromethyl)pyridine-2-carboxamide], the pIC50 in assay [1] was 6.30 to 7.00. Besides, the DC50 in assay [2] was under 10 nM.

(Values after patent publication US20240383887A1, “DEUTERATED IRAK DEGRADERS AND USES THEREOF” (Kymera Therapeutics, Inc., priority 2021, published 2024).)
